Laboratory results as given in PMC12081876, “Identification of PTGR2 inhibitors as a new therapeutic strategy for diabetes and obesity” (EMBO Molecular Medicine, 2025).
Where “and” joins values, the source holds several entries; their conditions need not be identical. Equal entries are not always repeated.

Tested on: HFHSD-fed obese C57BL6/J mice
Assay: Cold tolerance test (cold-induced thermogenesis)
Format: in vivo, mouse
Settings: for interscapular area temperature, Average / interscapular area temperature: Figure 2T left panel; for interscapular area temperature, Average / rectal temperatures, Average: average of 12 mice; for interscapular area temperature, Average / interscapular area temperature / inguinal area temperature / rectal temperatures, Average / rectal temperatures: in °C (unit assumed); for interscapular area temperature / inguinal area temperature / rectal temperatures: individual mice; for inguinal area temperature: Figure 2T middle panel; for rectal temperatures, Average / rectal temperatures: Figure 2T right panel; for temperature, Figure 2T middle panel, Average: in °C
Description: For the cold tolerance test, 24-week-old mice with matched average body weight from the two groups were placed individually on HFHSD in a 4 °C chamber. The rectal temperature of the mice was measured after 0, 1, 2, 3, 4, 5, 6, 12, and 18 h. For measuring diet-induced thermogenesis, 24-week-old mice were fasted overnight for 18 h. Then, we measured their rectal temperature at 0, 30, 60, 90, 120, 150, 180, and 240 min after HFHSD refeeding. The rectal and surface temperature were detected by thermal probes (Physitemp Therma TH-5, ThermoWorks, Alpine and MicroTherma 2T, ThermoWorks, Alpine, respectively).

CCCCCC(=O)/C=C/[C@H]1[C@H](O)CC(=O)[C@@H]1C/C=C\CCCC(=O)O [15-keto-PGE2, 15-keto-prostaglandin E2]
interscapular, inguinal and rectal temperatures during cold test (40 mg/kg/day ip, vs vehicle): higher interscapular, inguinal, and rectal temperatures than vehicle controls during prolonged cold tests
interscapular area temperature, Average (period 0 hr): 38.275
interscapular area temperature (period 0 hr): 37.4 and 37.9 and 38.2 and 38.1 and 38.9
interscapular area temperature, Average (period 1 hr): 37.6917
interscapular area temperature (period 1 hr): 37.1 and 37.5 and 37.2 and 37.9 and 37.4
interscapular area temperature, Average (period 2 hr): 37.3583
interscapular area temperature (period 2 hr): 37.4 and 37.2 and 36.9 and 37.8 and 37.6 and 36.4
interscapular area temperature, Average (period 3 hr): 37.0083
interscapular area temperature (period 3 hr): 37.2 and 37.1 and 36.5 and 37.3 and 37.5 and 36.4
interscapular area temperature, Average (period 4 hr): 37.0083
interscapular area temperature (period 4 hr): 37 and 36.8 and 37.6 and 37.3 and 36.2
interscapular area temperature, Average (period 5 hr): 36.8917
interscapular area temperature (period 5 hr): 36.5 and 37 and 36.7 and 36.9 and 37.1
interscapular area temperature, Average (period 6 hr): 36.7583
interscapular area temperature (period 6 hr): 36.2 and 36.3 and 36.9 and 37.9 and 37
interscapular area temperature, Average (period 12 hr): 35.6833
interscapular area temperature (period 12 hr): 36.2 and 37.5 and 34.9 and 35.7 and 35.4
interscapular area temperature, Average (period 18 hr): 34.8333
interscapular area temperature (period 18 hr): 36.3 and 35.5 and 33.6 and 33.9 and 35.7
inguinal area temperature (period 0 hr): 36.2 and 36.9 and 37.2
inguinal area temperature (period 1 hr): 36.2 and 36.8
inguinal area temperature (period 2 hr): 35.8 and 34.9
inguinal area temperature (period 3 hr): 35.5 and 34.7
inguinal area temperature (period 4 hr): 35 and 34.8
inguinal area temperature (period 5 hr): 34.9 and 34.7
inguinal area temperature (period 6 hr): 35.2 and 34.9
inguinal area temperature (period 12 hr): 32.9 and 34.1
inguinal area temperature (period 18 hr): 33.2 and 33.7
rectal temperatures, Average (period 0 hr): 37.9667
rectal temperatures (period 0 hr): 37.6 and 38.1 and 38.5 and 37.9 and 36.3 and 38.3 and 38
rectal temperatures, Average (period 1 hr): 37.1667
rectal temperatures (period 1 hr): 37 and 37.2 and 37.1 and 37.3 and 36.6 and 37.4 and 37.8 and 37.6
rectal temperatures, Average (period 2 hr): 36.6917
rectal temperatures (period 2 hr): 37.4 and 35.2 and 36.3 and 37 and 37.2 and 36.8 and 36.6 and 36.9 and 36.1 and 36.4
rectal temperatures, Average (period 3 hr): 36.45
rectal temperatures (period 3 hr): 36.7 and 36 and 36.6 and 36.9 and 35.8 and 37.5 and 36.3 and 36.2 and 36.1 and 36.4
rectal temperatures, Average (period 4 hr): 36.45
rectal temperatures (period 4 hr): 37 and 36.2 and 36.8 and 37.2 and 36.7 and 36 and 35.7 and 36.4
rectal temperatures, Average (period 5 hr): 36.4167
rectal temperatures (period 5 hr): 37.6 and 36.4 and 36.3 and 36.1 and 36.5 and 36.7 and 35.8 and 36.2
rectal temperatures, Average (period 6 hr): 36.4167
rectal temperatures (period 6 hr): 36.8 and 36.6 and 36.4 and 35.6 and 37.3 and 36.1 and 36 and 35.5
rectal temperatures, Average (period 12 hr): 35.6917
rectal temperatures (period 12 hr): 35.9 and 37.5 and 34.2 and 35.3 and 37.6 and 34.5 and 35.2 and 36.3 and 37.9
rectal temperatures, Average (period 18 hr): 34.025
rectal temperatures (period 18 hr): 35.7 and 34.9 and 33 and 33.1 and 34.8 and 34.6 and 32 and 34.5 and 33.4 and 33.6 and 34.2
temperature, Figure 2T middle panel, Average (time 0): 36.2
temperature, Figure 2T middle panel, Average (time 1): 36.0083
temperature, Figure 2T middle panel, Average (time 2): 35.325
temperature, Figure 2T middle panel, Average (time 3): 35.0083
temperature, Figure 2T middle panel, Average (time 4): 34.8083
temperature, Figure 2T middle panel, Average (time 5): 34.6417
temperature, Figure 2T middle panel, Average (time 6): 34.6417
temperature, Figure 2T middle panel, Average (time 12): 34.375
temperature, Figure 2T middle panel, Average (time 18): 33.2583
